Assay [1] has as its system APEC O78. As to the kind of experiment: Crystal violet (CV) uptake assay. It is filed as cell-based, Escherichia coli. To be noted: 2X MBC, 30 mins; P < 0.05, Student's t-test. How it is done: Membrane permeability assays (crystal violet (CV) uptake and loss of 260/280 nm absorbing materials) were conducted as described previously. […] CV uptake was measured using the formula: (OD DMSO − OD SM/OD DMSO × 100). Two independent experiments in duplicates were conducted.

Assay [2] relates to intracellular APEC O78, O2, and O1 in infected Caco-2, HD11, and THP1 cells. Kind of assay: Intracellular survival assay, statements over all serotypes and cells. It is filed as cell-based, Escherichia coli. Particulars: for minimal effective concentration: Escherichia coli, 6 h, O78, O2 and O1, Caco-2, HD11, THP-1, read-out: concentration clearing intracellular APEC. As for the experimental part:
Intracellular survival assay was conducted as described previously[28],[29] to determine the effect of cidal SMs on APEC survival in phagocytic (HD11, THP-1) and non-phagocytic (Caco-2) cells. Briefly, mid-logarithmic phase grown APEC O78, O1, and O2 were washed and adjusted to 1 × 10^7 CFU/mL in cell culture incomplete media (no FBS and antibiotics). One-hundred microlitres adjusted APEC suspension was added at multiplicity of infection (MOI) 10 to wells of 96-well cell culture plate containing cultured macrophage (HD11, THP-1) and epithelial cells (Caco-2) and incubated for 1 h and 3 h, respectively. […] The cells were then lysed with 100 µL of 0.1% Triton X-100 for 5 mins, serially diluted, and plated on LB agar plate to enumerate viable bacteria. The intracellular bacteria in SMs treated wells were compared with DMSO (1%) treated wells. Two independent experiments in duplicate wells for each concentration of SMs were conducted.

Another assay concerns APEC O115. As to the kind of experiment: MIC and MBC determination in M63 media. It is filed as cell-based. Particulars: Escherichia coli.
For assay [3], the system named is STEC O157 and O26 strains. Kind of assay: Activity against STEC strains at 100 µM in M63 media. Type of assay: cell-based, Escherichia coli.
For assay [4], the system named is intracellular APEC O78 in Caco-2 cells. Kind of assay: Intracellular survival assay. It is filed as cell-based, Escherichia coli. To be noted: for minimal effective concentration: Escherichia coli, O78, Caco-2, 6 h treatment, read-out: SMs intracellular APEC clearance concentration; for intracellular APEC clearance concentration as multiple of MIC (superscript): O78, Caco-2; for concentration at which the SM significantly (P < 0.01) reduced intracellular APEC (superscript of t-statistic): O78, Caco-2, 6 h. Summed up:
(§1)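 MOI 10 infection with mid-logarithmic APEC; 1 h for macrophages (HD11, THP-1), 3 h for Caco-2. Lysis 0.1% Triton X-100 5 min, serial dilution, LB agar CFU counts. Compared with 1% DMSO wells; two experiments, duplicate wells per concentration.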

Assay [5] concerns intracellular APEC O1 in Caco-2 cells. As to the kind of experiment: Intracellular survival assay. Type of assay: cell-based, Escherichia coli. To be noted: for minimal effective concentration: Escherichia coli, O1, Caco-2, 6 h treatment, read-out: SMs intracellular APEC clearance concentration; for concentration at which the SM significantly (P < 0.01) reduced intracellular APEC (superscript of t-statistic): O1, Caco-2, 6 h. In a few lines: as §1

Assay [6] relates to intracellular APEC O2 in HD11 cells. As to the kind of experiment: Intracellular survival assay. Type of assay: cell-based, Escherichia coli. Particulars: for minimal effective concentration: Escherichia coli, O2, HD11, 6 h treatment, read-out: SMs intracellular APEC clearance concentration; for intracellular APEC clearance concentration as multiple of MIC (superscript): O2, HD11; for concentration at which the SM significantly (P < 0.01) reduced intracellular APEC (superscript of t-statistic): O2, HD11, 6 h. Summed up:
as §1

The test system of assay [7] is intracellular APEC O78 in THP-1 cells. As to the kind of experiment: Intracellular survival assay. It is filed as cell-based, Escherichia coli. To be noted: for minimal effective concentration: Escherichia coli, O78, THP-1, 6 h treatment, read-out: SMs intracellular APEC clearance concentration; for intracellular APEC clearance concentration as multiple of MIC (superscript): O78, THP-1; for concentration at which the SM significantly (P < 0.01) reduced intracellular APEC (superscript of t-statistic): O78, THP-1, 6 h. Summed up: as §1

Assay [8] concerns intracellular APEC O2 in THP-1 cells. As to the kind of experiment: Intracellular survival assay. To be noted: for minimal effective concentration: Escherichia coli, O2, THP-1, 6 h treatment, read-out: SMs intracellular APEC clearance concentration; for concentration at which the SM significantly (P < 0.01) reduced intracellular APEC (superscript of t-statistic): O2, THP-1, 6 h. Type of assay: cell-based, Escherichia coli. Summed up:
as §1

In assay [9] the test system is APEC O78. Kind of assay: Scanning electron microscopy. Type of assay: cell-based, Escherichia coli. To be noted: 2X MBC. As for the experimental part:
The SMs treated APEC O78 cultures prepared above were also processed for scanning electron microscopy (SEM) as described previously. […] Briefly, one volume of bacterial culture was mixed with one volume of fixative (3% glutaraldehyde, 1% paraformaldehyde in 0.1 M potassium phosphate buffer, pH 7.2), and incubated at 4 °C overnight. The fixed bacterial cells were then centrifuged for 5 mins at 1,200 × g, washed twice with PBS, and resuspended in 1% osmium tetroxide for 1 h at room temperature in the dark, followed by serial dehydration of the sample in ethanol and platinum splatter-coating. Visualization and imaging of the sample was performed using a Hitachi S-4700 scanning electron microscope.

Molecules are shown by their SMILES. In brackets after ≈: the same amount, converted by molar mass.

Consider `COc1cc(CNCCc2ccc3ccccc3c2)ccc1OCC(O)CN1CCCC1` (stereo not shown) [SM2], for which, in the assay on APEC O78 [1], the “uptake of crystal violet compared with DMSO” value (from here on “uptake … compared with DMSO”) is “increased the uptake of crystal violet”. The minimal effective concentration was at least 100 µM in assay [2]; 100 µM in assay [4]; over 200 µM in assay [5]; 200 µM in assay [6]; 100 µM in assay [7]; 100 µM in assay [8]. This compound came in with an MBC with APEC O115 of 200 µM (≈ 86.9 µg/mL). The same compound came in with an MIC with APEC O115 of 200 µM (≈ 86.9 µg/mL). Moreover, in assay [3], the “bactericidal activity against STEC strains” value is listed as “not cidal”. The “intracellular APEC clearance concentration as multiple of MIC (superscript)” value in assay [4] is on record as “a (1X MIC)”; in assay [6], “b (2X MIC)”; in [7] it was “a (1X MIC)”. Also, the “concentration at which the SM significantly (P < 0.01) reduced intracellular APEC (superscript of t-statistic)” value is on record as “a (0.5X MIC)” in [4]; “a (0.5X MIC)” in assay [5]; “a (0.5X MIC)” in assay [6]; “a (0.5X MIC)” in assay [7]; “b (1X MIC)” in assay [8].
Consider `COc1cc(CNCCc2ccc(C)cc2)ccc1OCC(O)CN1CCCC1` (stereo not shown) [SM3], for which, in the assay with APEC O78 [1], the “uptake … compared with DMSO” value is listed as “increased the uptake of crystal violet”. Also, the minimal effective concentration in [2] is at least 100 µM; in assay [4] it was 100 µM; in assay [5], over 200 µM; in assay [6], 200 µM; in [7], 100 µM; in assay [8] it was 100 µM. Moreover, in the assay with APEC O115, the MBC came out at 100 µM (≈ 39.9 µg/mL). In the assay on APEC O115, this compound came in with an MIC of 100 µM (≈ 39.9 µg/mL). Moreover, the “intracellular APEC clearance concentration as multiple of MIC (superscript)” value was “a (1X MIC)” in [4], “b (2X MIC)” in [6] and “a (1X MIC)” in assay [7]. Moreover, the “concentration at which the SM significantly (P < 0.01) reduced intracellular APEC (superscript of t-statistic)” value in assay [4] was “a (0.5X MIC)”; in assay [5], “c (2XMIC)”; in [6], “a (0.5X MIC)”; in assay [7], “a (0.5X MIC)”; in assay [8], “a (0.5X MIC)”. The “cell morphology in SEM” value with APEC O78 [9] is “blebbing and pore at single cell pole, respectively”.
For `CC1CCC(C(C)C)C(OC(=O)Cn2c[n+](CC(=O)OC3CC(C)CCC3C(C)C)c3ccccc32)C1` (stereo not shown) [SM4], the minimal effective concentration in assay [2] was at most 100 µM; in [4], 50 µM; in assay [5] it was 100 µM; in assay [6], 50 µM; in assay [7], 50 µM; in [8] it was 100 µM. Moreover, the “ranking in clearing intracellular APEC” value in [2] (all tested serotypes and cells) is reported as “most effective SMs in clearing intracellular APEC serotypes in all tested cells”. Also, the MBC in the assay with APEC O115 is 25 µM. Also, in the assay on APEC O115, it took 25 µM to inhibit growth (MIC). The “intracellular APEC clearance concentration as multiple of MIC (superscript)” value in [4] is “b (2X MIC)”; in assay [5] (O1, Caco-2), “c (4X MIC)”; in assay [6], “b (2X MIC)”; in assay [7], “b (2X MIC)”. The “concentration at which the SM significantly (P < 0.01) reduced intracellular APEC (superscript of t-statistic)” value is “a (0.5X MIC)” in assay [4]; “c (2XMIC)” in assay [5]; “a (0.5X MIC)” in [6]; “a (0.5X MIC)” in assay [7]; “b (1X MIC)” in assay [8]. The “cell morphology in SEM” value with APEC O78 [9] is “severe wrinkling and multiple blebbing throughout the cells (membrane disruptors)”.
`COc1ccc(CCN(Cc2cc3c(cc2Cl)OCO3)CC2CCN(C)CC2)cc1` [SM11]: the “uptake … compared with DMSO” value with APEC O78 [1] was “increased the uptake of crystal violet”. Moreover, the minimal effective concentration in assay [2] is at least 100 µM; in assay [4], 100 µM; in assay [5], over 200 µM; in [6] it was 200 µM; in assay [7], 100 µM; in [8] it was 100 µM. The same compound came in with an MBC against APEC O115 of 200 µM (≈ 86.2 µg/mL). The lowest concentration to inhibit growth in the assay with APEC O115 (MIC) was 200 µM (≈ 86.2 µg/mL). Moreover, the “bactericidal activity against STEC strains” value in assay [3] was “not cidal”. The “intracellular APEC clearance concentration as multiple of MIC (superscript)” value is recorded as “a (1X MIC)” in assay [4], “b (2X MIC)” in assay [6] and “a (1X MIC)” in assay [7]. For the same compound, the “concentration at which the SM significantly (P < 0.01) reduced intracellular APEC (superscript of t-statistic)” value in assay [4] is listed as “b (1X MIC)”; in assay [5] it was “b (1X MIC)”; in assay [6], “a (0.5X MIC)”; in [7], “a (0.5X MIC)”; in assay [8], “a (0.5X MIC)”.

By MBC is commonly meant the smallest concentration meeting the test's criterion for killing. A higher MBC goes with less potent killing. One may read the MIC as the least concentration at which growth counts as inhibited.
